Our source for the IC50 values is US11332473B2, “Substituted pyrazolo[3,4-d]pyrimidines as Wee1 inhibitors” (NUVATION BIO INC., priority 2019, dated 2022).

In one experiment the target is PKMYT1 kinase (Homo sapiens (Human), UniProt Q99640). Briefly: PKMYT1 IC50 determination, HotSpot Kinase Assay. The format is biochemical. The note with it: 10 μM ATP, 33P-ATP, Myelin Basic Protein substrate. As for the experimental part:
Inhibition of PKMYT1 kinase activity by test compounds was measured by the HotSpot Kinase Assay at Reaction Biology Corporation (Malvern, Pa.). Briefly, Myelin Basic Protein substrate was prepared in Reaction Buffer (20 mM Hepes (pH 7.5), 10 mM MgCl2, 1 mM EGTA, 0.01% Brij35, 0.02 mg/mL BSA, 0.1 mM Na3VO4, 2 mM DTT, 1% DMSO). PKMYT1 kinase was delivered into the substrate solution and gently mixed. Test compounds in 100% DMSO were added into the kinase reaction mixture by Acoustic technology (Echo550; nanoliter range) and incubated for 20 min at room temperature. ^33P-ATP was delivered into the reaction mixture to initiate the reaction. Reactions were carried out at 10 μM ATP. After a 2 hour incubation at room temperature, kinase activity was detected by P81 filter-binding method. […] A nonlinear regression model with a sigmoidal dose response and variable slope within GraphPad Prism (GraphPad Software, San Diego, Calif.) was used to calculate the IC50 value of individual test compounds.

In another experiment the target is WEE1 kinase enzyme (Homo sapiens (Human), UniProt P30291). Briefly: WEE1 IC50 determination, LanthaScreen Terbium Labeled TR-FRET kinase assay. Format: biochemical. To be noted: WEE1 enzyme 1 nM, ATP 10 μM. As for the experimental part:
IC50 values of compounds against WEE1 kinase enzyme were determined by LanthaScreen™ Terbium Labeled TR-FRET assay. Kinase assays were performed in 1X kinase buffer (#PV6135, Invitrogen, Life Technologies Grand Island, N.Y.) where total reaction volume was 10 μL in low-volume 384-well plates (#4511, Corning). Serially diluted compounds (3-fold) were incubated with WEE1 Enzyme (1 nM) (#PR7373A, Invitrogen, Life Technologies, Grand Island, N.Y.) for 10 min; a mixture of ATP (10 μM) (#A1852, Sigma, St. Louis, Mo.) and fluorescent-PolyGT substrate (200 nM) (#PV3610, Invitrogen, Life Technologies Grand Island, N.Y.) was added and incubated in dark at room temperature for 1 h. After 1 h, 10 μL stop solution containing Terbium labeled antibody (4 nM) (#PV3529, Invitrogen, Life Technologies Grand Island, N.Y.) and EDTA (#E5134, Sigma, St. Louis, Mo.) (20 mM) in TR-FRET dilution buffer (#PV3574, Invitrogen, Life Technologies Grand Island, N.Y.) was added. Readings were taken in a Synergy Neo Plate reader (BioTek, Winooski, Vt.) at single excitation of 340 nm and dual emission at 495 nm and 520 nm respectively.
The % activity of test samples was calculated as (Sample−Min)*100/(Max−Min). [Max: DMSO control, complete reaction with enzyme & DMSO and Min: No enzyme & DMSO].

A further experiment concerns A427 cells. In words: Cytotoxicity assay in A427 cell line (resazurin). The format is cell-based. To be noted: Homo sapiens, A-427; A427 lung epithelial cell line, 72 hr, inhibition of proliferation. As for the experimental part:
A427 (HTB-53; ATCC), a lung epithelial cell line, was seeded in medium (MEM, 41090101; Gibco) at a cell count of 1500 cells per 100 μL per well in a 96 well edge plate (167425; ThermoFisher). Cells were allowed to grow at 37° C. for 24 hr in 5% CO2 environment (culture conditions) in a Nuaire incubator (humidified). Serially diluted test compounds (100 μL) within the desired testing concentration ranges were added to the culture plate and the cells were further incubated in culture conditions for 72 hr. The experiment was terminated at the designated incubation time by replacing the medium with 100 μL of 1 mM of resazurin (R7017; Sigma) prepared in culture medium, and the plates were further incubated in culture conditions for 4-6 hr. Fluorescence was recorded using a multimodal plate reader (Biotek Synergy Neo) at an excitation wavelength of 535 nm and emission wavelength of 590 nm to obtain relative fluorescence units. Data were analysed as follows: the background fluorescence (blank containing only medium) value was subtracted from each reading and normalized with the vehicle control (DMSO treated cells) to obtain percent survival/proliferation. Percent survival was subtracted from 100 to get the percent inhibition of proliferation which was used to calculate IC50 values. Potency of compounds in other cell lines (such as A549, AsPc-1, Panc 10.05, A172, U-87MG) may be determined in an analogous manner.
Background: Alamar Blue is a resazurin reagent that responds to reducing activity.

Chain of WEE1 kinase enzyme (P30291 whole entry): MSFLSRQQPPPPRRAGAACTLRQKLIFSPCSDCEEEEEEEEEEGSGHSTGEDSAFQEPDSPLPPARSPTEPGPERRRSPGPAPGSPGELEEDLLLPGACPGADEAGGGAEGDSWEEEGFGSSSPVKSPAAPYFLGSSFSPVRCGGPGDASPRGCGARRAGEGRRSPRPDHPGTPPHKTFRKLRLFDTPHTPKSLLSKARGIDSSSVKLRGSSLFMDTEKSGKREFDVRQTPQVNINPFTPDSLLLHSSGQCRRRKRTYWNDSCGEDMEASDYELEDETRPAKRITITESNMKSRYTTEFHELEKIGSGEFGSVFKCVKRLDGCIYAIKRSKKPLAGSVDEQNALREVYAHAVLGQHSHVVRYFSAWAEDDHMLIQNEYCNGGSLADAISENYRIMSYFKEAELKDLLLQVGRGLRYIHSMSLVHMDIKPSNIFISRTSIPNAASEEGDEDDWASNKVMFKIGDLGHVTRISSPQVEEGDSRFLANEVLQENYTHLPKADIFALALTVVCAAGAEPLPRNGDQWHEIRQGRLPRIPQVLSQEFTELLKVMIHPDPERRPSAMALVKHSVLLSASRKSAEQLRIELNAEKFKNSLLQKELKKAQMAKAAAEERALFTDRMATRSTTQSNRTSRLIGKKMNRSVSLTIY
Chain of PKMYT1 kinase (Q99640 whole entry): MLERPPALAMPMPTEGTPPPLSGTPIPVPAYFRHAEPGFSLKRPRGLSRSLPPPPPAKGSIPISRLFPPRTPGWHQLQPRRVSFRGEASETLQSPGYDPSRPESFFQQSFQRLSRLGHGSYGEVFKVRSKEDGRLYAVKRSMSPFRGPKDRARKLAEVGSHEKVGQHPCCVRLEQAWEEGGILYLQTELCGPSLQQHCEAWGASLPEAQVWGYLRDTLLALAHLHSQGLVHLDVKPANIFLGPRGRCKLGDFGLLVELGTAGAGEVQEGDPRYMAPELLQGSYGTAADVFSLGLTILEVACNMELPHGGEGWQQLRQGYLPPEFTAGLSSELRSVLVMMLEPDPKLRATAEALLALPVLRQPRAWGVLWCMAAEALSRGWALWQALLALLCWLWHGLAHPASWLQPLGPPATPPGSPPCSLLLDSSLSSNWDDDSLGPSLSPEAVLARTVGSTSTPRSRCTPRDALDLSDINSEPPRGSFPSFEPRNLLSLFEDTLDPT

A word on the IC50: it is the concentration needed to halve the response being measured. On to `CC(C)n1c(=O)c2cnc(Nc3ccc4c(c3)CCNC4)nc2n1-c1csc(C2CC2)n1` [1.464, 1-(2-cyclopropylthiazol-4-yl)-2-isopropyl-6-((1,2,3,4-tetrahydroisoquinolin-6-yl)amino)-1,2-dihydro-3H-pyrazolo[3,4-d]pyrimidin-3-one], for which the IC50 at PKMYT1 kinase came to 28800 nM; on WEE1 kinase enzyme, 49 nM; in the experiment on A427 cells, 24600 nM.
The corresponding values for `N#CC1(c2cccc(-n3c4nc(Nc5ccc6c(c5)CNCC6)ncc4c(=O)n3CC(F)(F)F)n2)CC1` [1.32, 1-(6-(3-oxo-6-(1,2,3,4-tetrahydroisoquinolin-7-ylamino)-2-(2,2,2-trifluoroethyl)-2,3-dihydro-1H-pyrazolo[3,4-d]pyrimidin-1-yl)pyridin-2-yl)cyclopropanecarbonitrile] are 767 nM, 8 nM and 870 nM.
Turning to `CC(C)n1c(=O)c2cnc(Nc3ccc4c(c3)CCNC4(C)C)nc2n1-c1ccc(F)c(C(C)(C)O)n1` [1.251, 6-((1,1-dimethyl-1,2,3,4-tetrahydroisoquinolin-6-yl)amino)-1-(5-fluoro-6-(2-hydroxypropan-2-yl)pyridin-2-yl)-2-isopropyl-1,2-dihydro-3H-pyrazolo[3,4-d]pyrimidin-3-one], the values for the IC50 against PKMYT1 kinase, on WEE1 kinase enzyme and in the experiment with A427 cells were 6690 nM, 7 nM and 12400 nM, respectively.
Turning to `CCn1c(=O)c2cnc(Nc3ccc4c(c3)CCNC4(C)C)nc2n1-c1nc(C(C)(C)C#N)ccc1F` [1.335, 2-(6-(6-(1,1-dimethyl-1,2,3,4-tetrahydroisoquinolin-6-ylamino)-2-ethyl-3-oxo-2,3-dihydro-1H-pyrazolo[3,4-d]pyrimidin-1-yl)-5-fluoropyridin-2-yl)-2-methylpropanenitrile], the IC50 worked out at 5 nM at WEE1 kinase enzyme and 4730 nM in the experiment with A427 cells.
Regarding `CCn1c(=O)c2cnc(Nc3ccc4c(c3)CCNC43CC3)nc2n1-c1cccc(C2(C#N)CC2)n1` [1.42, 1-(6-(6-(2′,3′-dihydro-1^1H-spiro[cyclopropane-1,4′-isoquinoline]-7′-ylamino)-2-ethyl-3-oxo-2,3-dihydro-1H-pyrazolo[3,4-d]pyrimidin-1-yl)pyridin-2-yl)cyclopropanecarbonitrile], the IC50 on WEE1 kinase enzyme worked out at 1 nM; in the experiment on A427 cells, 255 nM.
Consider `CC(C)(F)c1nc(-n2c3nc(Nc4ccc5c(c4)CCNC5(C)C)ncc3c(=O)n2C2CC2)ccc1F` [1.5, 2-cyclopropyl-6-((1,1-dimethyl-1,2,3,4-tetrahydroisoquinolin-6-yl)amino)-1-(5-fluoro-6-(2-fluoropropan-2-yl)pyridin-2-yl)-1,2-dihydro-3H-pyrazolo[3,4-d]pyrimidin-3-one], for which the IC50 at PKMYT1 kinase was 5500 nM; at WEE1 kinase enzyme, 5 nM; with A427 cells, 7600 nM.
The corresponding values for `CCn1c(=O)c2cnc(Nc3ccc4c(c3)CCNC4)nc2n1-c1ccc(F)c(C(C)(C)O)n1` [1.261, 2-ethyl-1-(5-fluoro-6-(2-hydroxypropan-2-yl)pyridin-2-yl)-6-((1,2,3,4-tetrahydroisoquinolin-6-yl)amino)-1,2-dihydro-3H-pyrazolo[3,4-d]pyrimidin-3-one] are 4540 nM, 9 nM and 900 nM.
In the case of `CC(C)n1c(=O)c2cnc(Nc3ccc4c(c3)CNCC4)nc2n1-c1nc(C(C)(C)C#N)ccc1F` [1.322, 2-(5-fluoro-6-(2-isopropyl-3-oxo-6-(1,2,3,4-tetrahydroisoquinolin-7-ylamino)-2,3-dihydro-1H-pyrazolo[3,4-d]pyrimidin-1-yl)pyridin-2-yl)-2-methylpropanenitrile], the IC50 on PKMYT1 kinase is 7490 nM.
For `CCn1c(=O)c2cnc(Nc3ccc4c(c3)CNCC4(C)C)nc2n1-c1cccc(C2(C#N)CC2)n1` [1.40, 1-(6-(6-((4,4-dimethyl-1,2,3,4-tetrahydroisoquinolin-7-yl)amino)-2-ethyl-3-oxo-2,3-dihydro-1H-pyrazolo[3,4-d]pyrimidin-1-yl)pyridin-2-yl)cyclopropane-1-carbonitrile], the IC50 against PKMYT1 kinase stood at 121 nM; on WEE1 kinase enzyme, 4 nM.
Consider `CC(C)n1c(=O)c2cnc(Nc3ccc4c(c3)CNCC4)nc2n1-c1ccc(F)c(C(C)(C)O)n1` [1.250, 1-(5-fluoro-6-(2-hydroxypropan-2-yl)pyridin-2-yl)-2-isopropyl-6-((1,2,3,4-tetrahydroisoquinolin-7-yl)amino)-1,2-dihydro-3H-pyrazolo[3,4-d]pyrimidin-3-one], for which the figures for the IC50 against PKMYT1 kinase and at WEE1 kinase enzyme were 13500 nM and 8 nM, respectively.
Take `CC(C)n1c(=O)c2cnc(Nc3ccc4c(c3)CCNC4)nc2n1-c1ccnc(C2(C#N)CC2)c1` [1.67, 1-(4-(2-isopropyl-3-oxo-6-(1,2,3,4-tetrahydroisoquinolin-6-ylamino)-2,3-dihydro-1H-pyrazolo[3,4-d]pyrimidin-1-yl)pyridin-2-yl)cyclopropanecarbonitrile]: the IC50 against PKMYT1 kinase stood at 2900 nM; on WEE1 kinase enzyme it was 15 nM; in the experiment with A427 cells it was 2580 nM.
As for `CCn1c(=O)c2cnc(Nc3ccc4c(c3)CNCC4)nc2n1-c1ccc(F)c(C(C)(C)O)n1` [1.262, 2-ethyl-1-(5-fluoro-6-(2-hydroxypropan-2-yl)pyridin-2-yl)-6-((1,2,3,4-tetrahydroisoquinolin-7-yl)amino)-1,2-dihydro-3H-pyrazolo[3,4-d]pyrimidin-3-one], the results for the IC50 against PKMYT1 kinase and at WEE1 kinase enzyme were 16800 nM and 8 nM, respectively.
The corresponding values for `CC(C)n1c(=O)c2cnc(Nc3ccc4c(c3)CCNC4)nc2n1-c1cccc(C2(CF)CC2)n1` [1.91, 1-(6-(1-(fluoromethyl)cyclopropyl)pyridin-2-yl)-2-isopropyl-6-((1,2,3,4-tetrahydroisoquinolin-6-yl)amino)-1,2-dihydro-3H-pyrazolo[3,4-d]pyrimidin-3-one] are 6920 nM and 3 nM.
As to `CCn1c(=O)c2cnc(Nc3ccc4c(c3)CCNC4(C)C)nc2n1-c1ccnc(C2(C#N)CC2)c1` [1.63, 1-(4-(6-((1,1-dimethyl-1,2,3,4-tetrahydroisoquinolin-6-yl)amino)-2-ethyl-3-oxo-2,3-dihydro-1H-pyrazolo[3,4-d]pyrimidin-1-yl)pyridin-2-yl)cyclopropane-1-carbonitrile], the IC50 on WEE1 kinase enzyme amounted to 18 nM; with A427 cells, 17200 nM.
Regarding `CCn1c(=O)c2cnc(Nc3ccc4c(c3)CCNC4(C)C)nc2n1-c1cccc(C2(C#N)CC2)n1` [1.39, 1-(6-(6-(1,1-dimethyl-1,2,3,4-tetrahydroisoquinolin-6-ylamino)-2-ethyl-3-oxo-2,3-dihydro-1H-pyrazolo[3,4-d]pyrimidin-1-yl)pyridin-2-yl)cyclopropanecarbonitrile], the IC50 was determined as 1 nM at WEE1 kinase enzyme and 510 nM in the experiment on A427 cells.
As for `CC(C)n1c(=O)c2cnc(Nc3ccc4c(c3)CNCC43CC3)nc2n1-c1ccc(F)c(C(C)(C)O)n1` [1.254, 6-((2′,3′-dihydro-1′H-spiro[cyclopropane-1,4′-isoquinolin]-7′-yl)amino)-1-(5-fluoro-6-(2-hydroxypropan-2-yl)pyridin-2-yl)-2-isopropyl-1,2-dihydro-3H-pyrazolo[3,4-d]pyrimidin-3-one], the half-maximal inhibitory concentration (IC50) at PKMYT1 kinase came out at 3560 nM; at WEE1 kinase enzyme, 140 nM.
